Substitutions are numbered along the chain they refer to. In names and notes the source's numbering stands.

For data set [1], the target named is T1, hSGLT3 (Homo sapiens, UniProt Q9NY91).
T1 construct: gene SLC5A4; full-length cDNA, cRNA expressed in Xenopus laevis oocytes (untagged in the oocyte tests)
T1 sequence (Q9NY91 1-659): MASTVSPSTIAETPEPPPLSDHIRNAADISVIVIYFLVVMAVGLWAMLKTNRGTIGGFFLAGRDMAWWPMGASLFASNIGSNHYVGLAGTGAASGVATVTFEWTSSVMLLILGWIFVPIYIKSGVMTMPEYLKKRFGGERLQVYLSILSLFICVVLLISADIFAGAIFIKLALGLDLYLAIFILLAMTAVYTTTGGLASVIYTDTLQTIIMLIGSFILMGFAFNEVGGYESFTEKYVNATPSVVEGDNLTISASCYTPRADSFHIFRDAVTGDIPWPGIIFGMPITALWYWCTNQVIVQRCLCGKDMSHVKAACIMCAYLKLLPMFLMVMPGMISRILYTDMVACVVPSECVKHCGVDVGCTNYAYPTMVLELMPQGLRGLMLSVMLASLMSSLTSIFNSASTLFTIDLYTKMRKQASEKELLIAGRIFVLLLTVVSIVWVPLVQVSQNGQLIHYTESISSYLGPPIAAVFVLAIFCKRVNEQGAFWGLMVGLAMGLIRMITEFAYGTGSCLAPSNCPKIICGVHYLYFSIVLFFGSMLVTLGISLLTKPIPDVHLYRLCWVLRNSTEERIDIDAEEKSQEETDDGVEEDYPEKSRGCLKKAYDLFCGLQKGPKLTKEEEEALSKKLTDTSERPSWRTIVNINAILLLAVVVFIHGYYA
The data set can be described thus: sugar-induced current, two-electrode voltage clamp in Xenopus oocytes. The format is cell-based. The note with it: 150 mM αM-glc, Na+ buffer; bound but not transported. For orientation: In two-electrode clamp one electrode senses voltage and the other passes current.

Data set [2] addresses T1, hSGLT3. Kind of data set: inhibition of glucose-induced current, two-electrode voltage clamp in Xenopus oocytes. Conditions: pH 5, glucose present; phlorizin also blocks about two-thirds of the H+-induced current. Type of data set: cell-based.
Data set [3] has as its target T2, hSGLT3 (Homo sapiens, UniProt Q9NY91, E457Q).
T2 construct: gene SLC5A4; full-length cDNA, cRNA expressed in Xenopus laevis oocytes (untagged in the oocyte tests)
T2 sequence (Q9NY91 1-659 E457Q): T1 sequence (Q9NY91 1-659) with E457Q
Kind of data set: inhibition of αM-glc-induced depolarization, two-electrode recording in Xenopus oocytes. The format is cell-based. The note with it: read-out: E457Q-hSGLT3 / K0.5. From the text: inhibition of αM-glc-induced depolarization, two-electrode recording in Xenopus oocytes on hSGLT3

Substrate in data set [4]: CO[C@H]1O[C@H](CO)[C@@H](O)[C@H](O)[C@H]1O
Kind of data set: sugar-induced depolarization, two-electrode recording in Xenopus oocytes. Type of data set: cell-based, Homo sapiens. The note with it: 100 mM Na+, pH 7.4, room temperature, n = 3. The source says:
sugar-induced depolarization, two-electrode recording in Xenopus oocytes on hSGLT3

Turning to `CO[C@H]1O[C@H](CO)[C@@H](O)[C@H](O)[C@H]1O` [αM-glc], the “sugar-induced current, two-electrode voltage clamp in Xenopus oocytes” value in data set [1] is “sugar-induced current (difference between black and open circles in 3D and 3G)”.

With `O=C(CCc1ccc(O)cc1)c1c(O)cc(O)cc1O[C@@H]1O[C@H](CO)[C@@H](O)[C@H](O)[C@H]1O` [phlorizin], the “% inhibition at 100 μM” value in data set [2] was 2/3. In data set [3], the Ki is 1.6 ± 0.09 µM.

B1: hSGLT3 (Homo sapiens; E457Q) (protein)
chain: T1 sequence (Q9NY91 1-659) with E457Q
notes: full-length cDNA, cRNA expressed in Xenopus laevis oocytes (untagged in the oocyte tests)
Take B1: the K0.5 in data set [4] was found to be 0.5 ± 0.03 mM.

Source of the values: paper PMC2857651, “A Single Amino Acid Change Converts the Sugar Sensor SGLT3 into a Sugar Transporter” (PLoS ONE, 2010).
